20 molecules from patent US12221432B2, “Estrogen receptor antagonist” (CHIA TAI TIANQING PHARMACEUTICAL GROUP CO., LTD., priority 2018, dated 2025) can be followed below.

One data set concerns MCF-7 cells. Briefly: MCF-7 cell proliferation inhibition. The note with it: read-out: IC50 for MCF-7 cell proliferation inhibition. It counts as cell-based. As for the experimental part:
EMEM medium was purchased from Wisent, and fetal bovine serum was purchased from Biosera. Promega CellTiter-Glo reagent. MCF-7 cells were purchased from the Cell Bank of Type Culture Collection Committee of the Chinese Academy of Sciences. Nivo5 multi-marker analyzer (PerkinElmer).
MCF-7 cells were seeded in a white 384-well plate at 600 cells/[…] suspension/well. The plate was incubated in a CO2 incubator overnight.
On the day of treatment, a day 0 plate coated under the same conditions the day before was taken, centrifuged to remove the medium, added with 25 microliters of Promega CellTiter-Glo reagent to each well, and incubated at room temperature for 10 minutes to stabilize the luminescence signal. Measures were read by PerkinElmer Nivo multi-marker analyzer as an initial value for 0% inhibition.
The test compounds were serially 5-fold diluted to the 10th concentration with a multichannel pipette, i.e., from 2 millimoles to […], and the experiments were set up in duplicate. 47.5 microliters of medium was added to the intermediate plate, 2.5 microliters of serially diluted compounds were transferred to corresponding wells of the intermediate plate, and after mixing, 5 microliters of the mixture per well was transferred to the cell plate. The plate was incubated in a CO2 incubator for 6 days.
After 6 days of co-incubation with the compounds, the plate was centrifuged to remove the medium, added with 25 microliters of Promega CellTiter-Glo reagent to each well, and incubated at room temperature for 10 minutes to stabilize the luminescence signal. Measures were read by PerkinElmer Nivo multi-marker analyzer.
The original data was converted into inhibition rate by the formula: % inhibition=((RFUCmpd−AVER(RFUNeg.Ctrl))/((AVER(RFUDay0)−AVER(RFUNeg.Ctrl))×100%. Curve fitting was conducted and IC50 was calculated.

Data set [1] deals with MCF-7 breast cancer cell xenograft. As to the kind of experiment: In vivo efficacy, MCF-7 breast cancer xenograft. On the set-up: species or system BALB/c nude mice. The note with it: for Tumor volume 27 days after grouping: Mean ± SEM; for T/C / TGI: day 27. As for the experimental part: This study was intended to evaluate the anti-tumor efficacy of compounds of the present application in MCF-7 breast cancer cell xenograft BALB/c nude mice (provided by Beijing Vital River Laboratory Animal Technology Co., Ltd., with the number of test animals in each experimental group being 7).
Three days before the xenograft, the mice were inoculated with 0.36 mg of 60-day sustained-release estrogen tablets subcutaneously on the left shoulder. In the logarithmic growth phase, the cells were collected and counted. The cell density was adjusted to 10×10^7 cells/mL, added with an equal volume of Matrigel and mixed for inoculation. Each mouse was xenografted subcutaneously with 0.2 mL of MCF-7 tumor cell suspension (10×10^6) on the right shoulder. On the 14th day after tumor cell xenograft, the mice were grouped and administered the drugs once a day, with an average tumor volume of 200 mm^3 and a body weight of 22.0-23.0 g. Tumor volume and body weight were measured twice a week after grouping. The tumor growth rate (T/C) and tumor growth inhibition rate (TGI) were calculated for the last tumor measurement data on the 27th day after grouping, and the anti-tumor efficacy of the compound was evaluated by TGI (%) or relative tumor proliferation rate T/C (%). TGI (%), reflects the tumor growth inhibition rate. TGI (%)=[(1-(average tumor volume at the end of treatment in a treatment group—average tumor volume at the start of treatment in the treatment group))/(average tumor volume at the end of treatment in the solvent control group—average tumor volume at the start of treatment in the solvent control group)]×100%, relative tumor proliferation rate T/C (%)=TRTV/CRTV×100% (TRTV: average RTV in the treatment group; CRTV: average RTV in the negative control group). Relative tumor volume (RTV) was calculated based on the results of tumor measurement. The formula is RTV=Vt/V0, wherein V0 is the tumor volume measured when grouping and administering (i.e., D0), and Vt is the tumor volume at a certain measurement, the data of TRTV and CRTV should be measured on the same day.

The nature of data set [2]: Pharmacokinetics study in mice (cassette). It counts as in vivo. The note with it: female, Balb/c, plasma, mouse cassette PK. The text has this:
Objective: To determine the drug concentration in the plasma of the mice at different times after intravenous and oral administration of the test compounds by LC/MS/MS using female Balb/c mice as the test animals. To investigate the pharmacokinetic performance of the test compounds in mice and to evaluate the pharmacokinetic characteristics.
Test animals: 4 healthy female Balb/c mice were divided into 2 groups according to the principle of similar weight, 2 in the IV group and 2 in the PO group. The animals were purchased from Shanghai Lingchang Biotechnology Co., Ltd.
(§1) IV group: Appropriate amounts of compounds were weighed respectively, prepared into 2 mg/mL solutions, then mixed to give a 0.5 mg/mL solution, which was stirred and ultrasonicated until a clear state. The vehicle was 15% HP-b-CD.
(§2) PO group: An appropriate amount of the IV group solution was taken and diluted to 0.4 mg/mL with 15% HP-b-CD.
(§3) Administration: After fasting overnight, the IV group was administered intravenously, and the dose of the test compound was 1 mg/kg; the PO group was administered intragastrically, and the dose of the test compound was 2 mg/kg.
(§4) Procedures: For IV group, 30 μL of blood was collected from the saphenous vein of the female Balb/c mice at 0.0833, 0.25, 0.5, 1, 2, 4, 8, and 24 hours post-dose, and placed in a commercial anticoagulant tube with EDTA-K2 added in advance. For PO group, 30 μL of blood was collected from the saphenous vein of the female Balb/c mice at 0.25, 0.5, 1, 2, 4, 8, 12 and 24 hours post-dose, and placed in a commercial anticoagulant tube with EDTA-K2 added in advance. The blood samples were centrifuged (3,200 g, 4° C., 10 minutes) to give plasma samples, which was transferred to a pre-cooled centrifuge tube, frozen in dry ice, and stored in an ultra-low temperature freezer at −60° C. or lower until the LC-MS/MS analysis. The animals were given free access to food 4 hours after the administration. LC/MS/MS method was used to determine the content of the test compounds in the plasma of mice after intravenous and oral administration. The linear range of the method is 2.00-2000 nM.

A short description of data set [3]: Pharmacokinetics study in rats (cassette). Type of data set: in vivo. The note with it: female, SD, plasma, rat cassette PK.
Excerpt: Experimental objective: To determine the drug concentration in the plasma of the rats at different times after intravenous and oral administration of the test compounds by LC/MS/MS using female SD rats as the test animals. To investigate the pharmacokinetic performance of the test compounds in rats and to evaluate the pharmacokinetic characteristics.
Test animals: 4 healthy female SD rats were divided into 2 groups according to according to the principle of similar weight, 2 in the IV group and 2 in the PO group. Animal used in this study were purchased from Beijing Vital River Laboratory Animal Technology Co., Ltd.
as §1, §2, §3
as §4, with “200” for “30”, “jugular” for “saphenous”, “SD rats” for “Balb/c mice”

The mark [4] stands for this setting: Homo sapiens, MCF7, 144 h, 6 days incubation, CellTiter-Glo.
[5] abbreviates: iv, i.v. 1 mg/kg, read-out: Vdss.
[6] abbreviates: 6 days incubation, CellTiter-Glo.

The structures appear in SMILES notation. Structures can show the parent of a compound that is named as a salt. Where two headings read alike, the source gives them in different places.

On to `CC/C(=C(/c1ccc(OCCNC/C=C/C(=O)N(C)C)nc1)c1[nH]c2ccccc2c1Cl)c1ccccc1C#N` [Compound 2], for which the IC50 in the data set with MCF-7 cells (setting [4]) came out at 0.64 nM.

Take `CC/C(=C(/c1ccc(OCCNC/C=C/C(=O)N(C)C)nc1)c1[nH]c2ccccc2c1Cl)c1ccccc1` [Compound 3]: the IC50 with MCF-7 cells (setting [4]) came to 0.87 nM.

As to `CC/C(=C(/c1ccc(OCCNC/C=C/C(=O)N(C)C)nc1)c1[nH]c2ccccc2c1Cl)c1cccc(OC)c1` [Compound 4 monohydrochloride], in data set [1] (3 mg/kg once a day), the “Tumor volume 27 days after grouping” value was 396 ± 58 mm^3, the T/C was found to be 28.74% and the TGI was determined as 83%. Also, in data set [1] (10 mg/kg once a day), the “Tumor volume 27 days after grouping” value came to 124 ± 5 mm^3, the T/C was determined as 9.32% and the TGI was 106%. In data set [2] (iv, i.v. 1 mg/kg), this molecule had an AUC(0-t) of 1.1 µM·h, a clearance of 26 mL/min/kg and a half-life of 1.85 h. In addition, the Vd in data set [2] (setting [5]) is 3.45 L/kg. In data set [2] (po, p.o. 2 mg/kg), the AUC(0-t) came to 0.503 µM·h, the Cmax is 159 nM, the Tmax came out at 0.25 h and the bioavailability was 22.9%. The molecule also showed a half-life in data set [2] (po, p.o. 2 mg/kg) of 3.25 h. In data set [3] (iv, i.v. 1 mg/kg), this molecule showed an area under the curve AUC(0-t) of 1.9 µM·h, a clearance of 15.8 mL/min/kg and a half-life of 3.98 h. Further, in data set [3] (setting [5]), the Vd worked out at 4.86 L/kg. In data set [3] (po, p.o. 2 mg/kg), the AUC(0-t) was 1.84 µM·h, the Cmax worked out at 233 nM, the time of peak concentration (Tmax) amounted to 2 h and the bioavailability is 48.4%. In data set [3] (po, p.o. 2 mg/kg), this molecule gave a half-life of 3.26 h.

With `CC/C(=C(/c1ccc(OCCNC/C=C/C(=O)N(C)C)nc1)c1[nH]c2ccccc2c1Cl)c1cccc(OC)c1` [Compound 4], the IC50 in the data set on MCF-7 cells (setting [4]) was 0.61 nM.

Regarding `CC/C(=C(/c1ccc(OCCN(C/C=C/C(=O)N(C)C)C(=O)OC(C)(C)C)nc1)c1[nH]c2ncccc2c1Cl)c1ccccc1` [Compound 5], the IC50 with MCF-7 cells (setting [6]) came to 4.74 nM.

As for `C=CC(=O)NCCOc1ccc(/C(=C(/CC)c2ccc(F)cc2Cl)c2[nH]c3ccccc3c2Cl)cn1` [Compound 7], in the data set on MCF-7 cells (setting [4]), the IC50 worked out at 4.25 nM.

For the molecule `CN(C)C(=O)/C=C/CNCCOc1ccc(/C(=C(/CC(F)(F)F)c2c(F)cncc2F)c2[nH]c3ccccc3c2Cl)cn1` [Compound 8], in the data set on MCF-7 cells (setting [6]), the IC50 was found to be 2.72 nM.

For `CN(C)C(=O)/C=C/CNCCOc1ccc(/C(=C(/CC(F)(F)F)c2ccc(F)cc2Cl)c2[nH]c3ccccc3c2Cl)cn1` [Compound 9], the IC50 in the data set on MCF-7 cells (setting [4]) worked out at 2.36 nM.

Take `CN(C)C(=O)/C=C/CNCCOc1ccc(/C(=C(/CC(F)(F)F)c2ccccc2C#N)c2[nH]c3ccccc3c2Cl)cn1` [Compound 10]: the IC50 with MCF-7 cells (setting [4]) came to 2.11 nM.

Consider `CC/C(=C(/c1ccc(OCCNC/C=C/C(=O)N(C)C)nc1)c1cc2ccccc2[nH]1)c1ccc(F)cc1Cl` [Compound 11], for which the IC50 in the data set with MCF-7 cells (setting [4]) came to 4.13 nM.

On to `CC/C(=C(/c1ccc(OCCNC/C=C/C(=O)N(C)C)nc1)c1[nH]c2ccccc2c1Cl)c1ccccc1Cl` [Compound 14], for which the IC50 in the data set on MCF-7 cells (setting [4]) amounted to 1 nM.

For the molecule `CC/C(=C(/c1ccc(OCCNC/C=C/C(=O)N(C)C)nc1)c1[nH]c2ccccc2c1Cl)c1ccc(Cl)cc1Cl` [Compound 15], in the data set on MCF-7 cells (setting [4]), the IC50 was determined as 1.6 nM.

With `CC/C(=C(/c1ccc(OCCNC/C=C/C(=O)N(C)C)nc1)c1[nH]c2ccccc2c1Cl)c1csc(C)c1` [Compound 16], in the data set with MCF-7 cells (setting [4]), the IC50 was 1.11 nM.

As to `CC/C(=C(/c1ccc(OCCNC/C=C/C(=O)N(C)C)nc1)c1[nH]c2ccccc2c1Cl)c1ccc(F)cc1F` [Compound 17], the IC50 with MCF-7 cells (setting [4]) was determined as 2.67 nM.

For `CC/C(=C(/c1ccc(OCCNC/C=C/C(=O)N(C)C)nc1)c1[nH]c2ccccc2c1Cl)c1cccc(C)c1` [Compound 18], the IC50 in the data set on MCF-7 cells (setting [4]) worked out at 2.35 nM.

Turning to `CC/C(=C(/c1ccc(OCCNC/C=C/C(=O)N(C)C)nc1F)c1[nH]c2ccccc2c1Cl)c1cccc(OC)c1` [Compound 19], the IC50 in the data set with MCF-7 cells (setting [4]) was found to be 2.75 nM.

Turning to `CC/C(=C(/c1ccc(OCCNC/C=C/C(=O)N(C)C)nc1)c1[nH]c2ccccc2c1C)c1cccc(OC)c1` [Compound 20], the IC50 in the data set with MCF-7 cells (setting [4]) was 1.46 nM.

With `CC/C(=C(/c1ccc(OCCNC/C=C/C(=O)N(C)C)cc1)c1[nH]c2ccccc2c1Cl)c1cccc(OC)c1` [Compound 21], the IC50 in the data set with MCF-7 cells (setting [4]) was 2.21 nM.

As to `CC/C(=C(/c1ccc(OCCNC/C=C/C(=O)N2CCC2)nc1)c1[nH]c2ccccc2c1Cl)c1ccccc1` [Compound 26], the IC50 in the data set on MCF-7 cells (Homo sapiens, MCF7, 144 h) came out at 3.82 nM.

For the molecule `CC/C(=C(/c1ccc(OCCNC/C=C/C(=O)N2CC(CF)C2)nc1)c1[nH]c2ccccc2c1Cl)c1ccccc1` [Compound 27], the IC50 in the data set with MCF-7 cells (setting [4]) is 0.49 nM.

In general, T/C refers to the result in the treated group divided by that in the control group, in per cent. What is called AUC(0-t) is exposure summed from dosing to a finite time, without extrapolation to infinity. High values mean high exposure, low ones low exposure. In general, clearance refers to the volume of plasma or blood freed of the substance per unit of time. Higher therefore signals efficient removal. The half-life is the time needed for the level to fall by half in the phase considered. A high value points to slow decline. One may read the Cmax as the highest concentration seen after dosing. As usually defined, the Tmax is the time from dosing to the highest level. Broadly, the bioavailability is dose-corrected exposure relative to a reference, in per cent. Lower therefore signals poor availability.
